For assay [1], the system named is Male mice of the Swiss Webster Strain. Nature of the assay: Potassium chloride-induced arrhythmia in anesthetized mice (survival). Type of assay: in vivo. Conditions: Mus musculus, iv, Dose = 10 mg/kg i.v.; potassium chloride 62.5 mg/kg i.v. bolus 5, 15 or 30 minutes after drug; observed 15 minutes; read-out: KCl #Mice Surviving #Mice Tested (converted). From the text: (§1) Intravenous administration of high doses of calcium or potassium chloride in animals produces cardiac arrhythmias, cardiac fibrillation and cardiac arrest. Any agent that can prevent these events is considered an antiarrhythmic/antifibrillatory agent. (Meth. and Find Exptl. Clin Pharmacol.2:223-252(1980); Pharmacol, Ther. 24:401-433 (1984); Experimental Cardiac and Antiarrhythmic Drugs, L. Szekeres and Gy. J. Dapp, Akademiai Kiado Preso, Budapest, 9-448 (1971).)
(§2) The method employed is as follows: Male mice of the Swiss Webster Strain (Charles River, Wilmington, MA) weighing 25-35 g are anesthetized with ethyl carbamate (urethan) (1.5g/kg body weight i.p.). A 25-gauge needle attached to PE-20 tubing is inserted into a caudal vein for drug administration. The lead II ECG is recorded by needle electrodes placed subcutaneously in the limbs. All data is collected on a Gould Brush recorder. Animals are observed 5 minutes before drug administration. A 5, 15, or 30 minute period following drug administration is allowed before the bolus injection of calcium chloride, 200 mg/kg i.v. or potassium chloride, 62.5 mg/kg i.v. Control mice receive 4 ml/kg of 0.9% sodium chloride i.v. Mice are observed an additional 15 minutes for arrhythmias, fibrillation, survival or death. Any compound at a dose of less than 20 mg/kg i.v. that protects 3 out of 6 mice from cardiac death in either the potassium or calcium chloride test, is considered active.

The test system is the same in assay [2]. The assay is described as follows: Calcium chloride-induced arrhythmia in anesthetized mice (survival). The assay is classed as in vivo. Conditions: Mus musculus, iv, Dose = 10 mg/kg i.v.; calcium chloride 200 mg/kg i.v. bolus 5, 15 or 30 minutes after drug; observed 15 minutes; read-out: CaCl2 #Mice Surviving #Mice Tested (converted).
Source text: as §1, §2

The target in assay [3] is T1, thromboxane synthetase enzyme (Rattus norvegicus, UniProt P49430).
T1 construct: from tissue; host or cells: washed blood platelets from Okamoto-Aoki spontaneously hypertensive rats (SHR)
T1 sequence (P49430 1-533): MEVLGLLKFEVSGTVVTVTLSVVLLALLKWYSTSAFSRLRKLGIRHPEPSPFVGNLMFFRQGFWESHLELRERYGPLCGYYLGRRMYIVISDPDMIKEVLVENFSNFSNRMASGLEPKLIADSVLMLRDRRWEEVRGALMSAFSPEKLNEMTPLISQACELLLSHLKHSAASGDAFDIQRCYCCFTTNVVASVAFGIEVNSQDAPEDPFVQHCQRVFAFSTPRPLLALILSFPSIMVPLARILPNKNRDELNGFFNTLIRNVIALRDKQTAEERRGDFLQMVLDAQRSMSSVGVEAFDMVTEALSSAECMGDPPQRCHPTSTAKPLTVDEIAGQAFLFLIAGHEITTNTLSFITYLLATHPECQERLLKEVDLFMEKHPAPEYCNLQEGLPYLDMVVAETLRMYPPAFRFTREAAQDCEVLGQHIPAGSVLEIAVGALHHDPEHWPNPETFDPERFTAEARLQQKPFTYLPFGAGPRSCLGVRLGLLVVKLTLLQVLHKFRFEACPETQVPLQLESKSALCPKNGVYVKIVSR
Nature of the assay: Inhibition of thromboxane (TXB2) formation in washed rat platelets, TXB2 radioimmunoassay. Type of assay: biochemical, Okamoto-Aoki spontaneously hypertensive rats (SHR). Conditions: Concentration 1x10^-4M, platelet suspension incubated 10 minutes at 37 °C. As to the method:
Under urethan anesthesia, […] of arterial blood from Okamoto-Aoki spontaneously hypertensive rats (SHR) (Taconic Farms, Germantown, NY) between 19 and 24 weeks in age is collected in one ml of 3.2% sodium citrate in a polystyrene tube. The blood is diluted with 3 ml of cold saline and centrifuged at room temperature for 15 minutes at 460xg. The platelet rich plasma (PRP) is separated. The platelets are isolated by centrifuging the PRP for 10 minutes at 1060xg and are washed in 4 ml of cold oxygenated Krebs phosphate buffer, pH 7.4. The chilled platelets, recovered from centrifuging at 800xg for 10 minutes, are resuspended in oxygenated Krebs phosphate buffer and diluted to contain 4.5-6.0 x 10⁴ platelets/µ1. The inhibition of thromboxane (TX) formation is studied by determining the concentration of thromboxane B₂ (TXB₂), the stable hydrolysis product of TXA₂. Assay samples, prepared on ice, contain 200 µ1 platelet suspension, 50 µ1 saline, and 50 µ1 vehicle (saline) or drug under study. The samples are incubated for 10 minutes at 37 °C in a metabolic shaker. The reaction is terminated by immersing the tubes in an ice bath and adding 50 µl of 0.5M citric acid. The samples are centrifuged for 10 minutes in a refrigerated centrifuge and the supernatants thus obtained are decanted and stored at -20 °C. The TXB₂ content for each sample is determined by a direct radioimmunoassay (RIA) utilizing a TXB₂ specific RIA kit purchased from New England Nuclear, Boston, MA and expressed as pg TXB₂ formed per minute per sample, from which the percent inhibition of TXB₂ formation is calculated.

Assay [4] concerns spontaneously hypertensive rats of the Okamoto strain. Nature of the assay: Hypotensive activity in spontaneously hypertensive rats (method of Chan and Poorvin). Type of assay: in vivo. Conditions: by gavage, 100 mg/kg or less, second identical dose 24 hours later; MABP measured 28 hours after initial dose; average MABP of the rats used 160±1.5 mm of mercury. As to the method: The novel compounds of the present invention are active hypotensive agents and were tested for hypotensive activity by the method of P.S. Chan and D. Poorvin, Clinical and Experimental Hypertension, 1 (6), 817-830 (1979). Male, 16 week old, spontaneously hypertensive rats of the Okamoto strain, from Taconic Farms, Germantown, New York, having an average mean arterial blood pressure of 160±1.5 mm of mercury, were used in the test. One to four rats were used per test compound. A rat is dosed by gavage with a test compound suspended in 2% pre-boiled starch at a concentration of 50 mg/ml, at a dose of 100 mg/kg of body weight or less, with 0.9% sodium chloride loading at a dose of 25 ml/kg of body weight. A second identical dose of the test compound, without sodium chloride loading is given 24 hours later. At 28 hours after the initial dose the mean arterial blood pressure (MABP) is measured. The procedure is repeated in a second and third rat when necessary. The results of this test on representative compounds of the present invention appear below in Table II.

`N#Cc1cccnc1NCCCn1ccnc1` [Example 4, 2-[[3-(1H-Imidazol-1-yl)propyl]amino]-3-pyridinecarbonitrile]: the responders at 10 mg/kg in assay [1] was 16.7%; in assay [2], 66.7%. The compound also had an inhibition at 100 µM in assay [3] of 93%. Further, in assay [4], the “Avg. MABP in mm Hg (No. of Rats)” value is given as 117 (4) mm Hg.
The like results for `c1ccc2nc(NCCCn3ccnc3)ccc2c1` [Example 5, N-[3-(1H-Imidazol-1-yl)propyl]-2-quinolinamine] were, in that order, 50%, 83.3%, 93% and 97 (2) mm Hg.
Turning to `c1ccc2c(c1)nc(NCCCn1ccnc1)c1ccccc12` [Example 8, N-[3-(1H-Imidazol-1-yl)propyl]-6-phenanthridinamine], the values for the responders at 10 mg/kg in assay [1] and in assay [2] were 100% and 33.3%, respectively. In assay [3], 100 µM produced 100% inhibition. Besides, the “Avg. MABP in mm Hg (No. of Rats)” value in assay [4] is 103 (2) mm Hg.
As to `Cc1nc(NCCCn2ccnc2)ccc1C#N` [Example 30, 6-[[3-(1H-Imidazol-1-yl)propyl]amino]-2-methyl-3-pyridinecarbonitrile], the responders at 10 mg/kg is 100% in assay [1] and 16.7% in assay [2]. In addition, the inhibition at 100 µM in assay [3] turned out to be 94%. The “Avg. MABP in mm Hg (No. of Rats)” value in assay [4] is reported as 61 (2) mm Hg.
The like results for `Cc1cc(NCCCn2ccnc2)nc2c(C)cccc12` [Example 32, N-[3-(1H-Imidazol-1-yl)propyl]-4,8-dimethyl-2-quinolinamine] were, in that order, 50%, 0%, 98% and 96 (2) mm Hg.
The like results for `CC(CNc1nc2ccccc2c2ccccc12)Cn1ccnc1` (stereo not shown) [Example 86, N-[3-(1H-Imidazol-1-yl)-2-methylpropyl]-6-phenanthridinamine] were, in that order, 50%, 16.7%, 100% and 114 (2) mm Hg.
The like results for `Cc1cc(NCC(C)Cn2ccnc2)nc2ccccc12` (stereo not shown) [Example 88, N-[3-(1H-Imidazol-1-yl)-2-methylpropyl]-4-methyl-2-quinolinamine] were, in that order, 83.3%, 16.7%, 98% and 96 (2) mm Hg.

A word on the inhibition: it is the share of the control response that was lost under treatment.

The values above are taken from patent publication EP0446604A2, “Pyridine and related aza heterocycle derivatives as cardiovascular agents” (AMERICAN CYANAMID COMPANY, priority 1990, dated 1991).
